Assay results as given in US11760773B2, “Small molecule drug conjugates of gemcitabine monophosphate” (MaveriX Oncology, Inc., priority 2018, dated 2023).

How the values were obtained:
[1] = Comparative plasma PK of Compound 1 versus Int 1-4 in male CD-1 mice (study b); format: in vivo
Description: Objectives: to compare the plasma pharmacokinetics and stability of Compound 1 with its non-phosphorylated SMDC analog (Int 1-4) and in plasma following a single intravenous infusion administration of Compound 1 at 11.6 mg/kg and 23.2 mg/kg with Int 1-4 (formulation F1 & F2) at 10.0 mg/kg in male CD-1 mice
PK measurements: compare PK parameters C0, CL, Vdss, Cmax, tmax, t1/2, AUC(0-t), AUC(0-inf), MRT(0-t), MRT(0-inf) for Compound 1 and Int 1-4

[2] = Rat liver S9 stability; format: in vitro ADME
[3] = Dog liver S9 stability; format: in vitro ADME
[4] = Monkey liver S9 stability; format: in vitro ADME
[5] = Mouse liver S9 stability; format: in vitro ADME
[6] = Human liver S9 stability; format: in vitro ADME
[7] = Rat plasma stability; format: in vitro ADME; settings: 3 μM, 37° C.
Description: (§1) Method: Assay was carried out in 96-well microtiter plates. Compounds were incubated in replicates (n=2) for 0, 5, 15, 30, and 45 minutes at 37° C. Reaction mixtures (20 μL) contained a final concentration of 3 μM test compound in fresh Sprague Dawley rat plasma. Eucatropine is a positive control to verify assay performance. Linear regression of semi-log plot of % remaining of compounds versus time used to determine the half-life t1/2 values.

[8] = CD-1 mouse plasma stability; format: in vitro ADME; settings: 3 μM, 37° C.
Description: as §1, with “CD-1 mouse” for “Sprague Dawley rat”, “included as” for “is a”

[9] = Mouse plasma stability (Compound 1); format: in vitro ADME; settings: 37° C.
[10] = Human plasma stability; format: in vitro ADME; settings: 3 μM, 37° C.
Description: as §1, with “human” for “fresh Sprague Dawley rat”, “included as” for “is a”, “t½” for “t1/2”

[11] = Metabolic stability in liver hepatocytes, mouse; format: in vitro ADME
[12] = Metabolic stability in liver hepatocytes, human; format: in vitro ADME
[13] = Metabolic stability in liver hepatocytes, monkey; format: in vitro ADME
[14] = Metabolic stability in liver hepatocytes, dog; format: in vitro ADME
[15] = Plasma PK of Int 3-3 in CD-1 mice (study c); format: in vivo; settings: after iv Int 3-3 8.8 mg/kg
Description: Objectives: to determine the plasma pharmacokinetics of Int 3-3 following a single intravenous infusion of Int 3-3 at 8.83 mg/kg in CD-1 mice
PK measurements: compare PK parameters C0, CL, Vdss, Cmax, tmax, t1/2, AUC(0-t), AUC(0-inf), MRT(0-t), MRT(0-inf) for Int 3-3.

[16] = negative value indicates compound is stable

**Q.** For Gemcitabine monophosphate, which AUC0-last ([1]; after iv Compound 1 11.6 mg/kg) is on record?
**A.** The AUC0-last was 0.840 ng·h/mL.

**Q.** And the Cmax ([1]; after iv Compound 1 11.6 mg/kg)?
**A.** The Cmax was 33.6 ng/mL.

**Q.** What about the MRT0-last ([1]; after iv Compound 1 11.6 mg/kg) of the same compound?
**A.** Its MRT0-last is 1.79 min.

**Q.** And the Tmax ([1]; after iv Compound 1 11.6 mg/kg)?
**A.** The Tmax was 1.5 min.

**Q.** What about the AUC0-last ([1]; after iv Compound 1 23.2 mg/kg) of the same compound?
**A.** The AUC0-last was 1.18 ng·h/mL.

**Q.** What about the AUC(0-inf) ([1]; after iv Compound 1 23.2 mg/kg) of the same compound?
**A.** Its AUC(0-inf) is 1.44 ng·h/mL.

**Q.** And the Cmax ([1]; after iv Compound 1 23.2 mg/kg)?
**A.** The Cmax was 30.4 ng/mL.

**Q.** What about the MRT0-inf ([1]; after iv Compound 1 23.2 mg/kg) of the same compound?
**A.** Its MRT0-inf is 3.3 min.

**Q.** What about the MRT0-last ([1]; after iv Compound 1 23.2 mg/kg) of the same compound?
**A.** Its MRT0-last is 2.38 min.

**Q.** And the Tmax ([1]; after iv Compound 1 23.2 mg/kg)?
**A.** The Tmax was 1.5 min.

**Q.** And the t1/2 ([1]; after iv Compound 1 23.2 mg/kg)?
**A.** Its t1/2 is 1.64 min.

**Q.** For COc1cc2ccc(=O)oc2cc1O [Scopoletin, reference compound], which “Slope Mean ± SE” value ([2]; rat liver S9) is on record?
**A.** The value was −0.03134 ± 0.00198.

**Q.** And the half-life ([2]; rat liver S9, read-out: t1/2 Mean ± SE)?
**A.** Its half-life is 22.1 ± 1.4 min.

**Q.** And the microsomal CLint ([2]; rat, liver S9, rat liver S9, read-out: CLint Mean ± SE)?
**A.** Its microsomal CLint is 12.5 ± 0.792 µL/min/mg.

**Q.** And the “Slope Mean ± SE” value ([3]; dog liver S9)?
**A.** The value was −0.03892 ± 0.001665.

**Q.** And the half-life ([3]; dog liver S9, read-out: t1/2 Mean ± SE)?
**A.** The half-life was 17.8 ± 0.8 min.

**Q.** And the microsomal CLint ([3]; dog, liver S9, dog liver S9, read-out: CLint Mean ± SE)?
**A.** Its microsomal CLint is 15.6 ± 0.666 µL/min/mg.

**Q.** What about the “Slope Mean ± SE” value ([4]; monkey liver S9) of the same compound?
**A.** The value was −0.1391 ± 0.01406.

**Q.** What about the half-life ([4]; monkey liver S9, read-out: t1/2 Mean ± SE) of the same compound?
**A.** The half-life was 5 ± 0.5 min.

**Q.** What about the microsomal CLint ([4]; monkey, liver S9, monkey liver S9, read-out: CLint Mean ± SE) of the same compound?
**A.** The microsomal CLint was 55.6 ± 5.62 µL/min/mg.

**Q.** What about the “Slope Mean ± SE” value ([5]; mouse liver S9) of the same compound?
**A.** Its value is −0.06127 ± 0.006525.

**Q.** What about the half-life ([5]; mouse liver S9, read-out: t1/2 Mean ± SE) of the same compound?
**A.** Its half-life is 11.3 ± 1.2 min.

**Q.** What about the microsomal CLint ([5]; mouse, liver S9, mouse liver S9, read-out: CLint Mean ± SE) of the same compound?
**A.** The microsomal CLint was 24.5 ± 2.61 µL/min/mg.

**Q.** What about the half-life ([6]; human liver S9, read-out: t1/2 Mean ± SE) of the same compound?
**A.** The half-life was 8.2 ± 0.2 min.

**Q.** What about the microsomal CLint ([6]; human, liver S9, human liver S9, read-out: CLint Mean ± SE) of the same compound?
**A.** The microsomal CLint was 33.8 ± 0.92 µL/min/mg.

**Q.** With CC1CC(OC(=O)C(O)c2ccccc2)CC(C)(C)N1C (centres unmarked) [Eucatropine, reference compound] as the compound, how does the “Slope Mean ± SE” value ([7]; Sprague Dawley rat plasma) read?
**A.** The value was −0.007881 ± 0.00112.

**Q.** And the half-life at 3 μM ([7]; fresh Sprague Dawley rat plasma, read-out: t1/2 Mean ± SE)?
**A.** Its half-life at 3 μM is 87.9 ± 12.5 min.

**Q.** What about the “Slope Mean ± SE” value ([8]; in min-1 (unit assumed)) of the same compound?
**A.** Its value is −0.03084 ± 0.003016.

**Q.** And the half-life at 3 μM ([8]; fresh CD-1 mouse plasma, read-out: t1/2 Mean ± SE)?
**A.** The half-life at 3 μM was 22.5 ± 2.2 min.

**Q.** And the “Slope Mean ± SE” value ([9]; 3 μM)?
**A.** The value was −0.03084 ± 0.003016.

**Q.** What about the half-life at 3 μM ([9]; CD-1, 3 μM, read-out: t1/2 Mean ± SE) of the same compound?
**A.** Its half-life at 3 μM is 22.5 ± 2.2 min.

**Q.** And the half-life at 3 μM ([10]; read-out: t1/2 Mean ± SE)?
**A.** The half-life at 3 μM was 15.1 ± 1.1 min.

**Q.** What about the “Slope Mean ± SE” value ([10]; semi-log plot of % remaining versus time, in min-1 (unit assumed)) of the same compound?
**A.** Its value is −0.04591 ± 0.003277.

**Q.** Which results are given for C=CCN1CC[C@]23c4c5ccc(O)c4O[C@H]2C(=O)CC[C@@]3(O)[C@H]1C5 [Naxalone]?
**A.** Slope Mean ± SE [11]: −0.01828 ± 0.000731; t1/2 mean ± SE [11]: 37.9 ± 1.5 min; Slope Mean ± SE [12]: −0.01335 ± 0.000878; t1/2 mean ± SE [12]: 51.9 ± 3.4 min; Slope Mean ± SE [13]: −0.02948 ± 0.001002; t1/2 mean ± SE [13, 16]: 23.5 ± 0.8 min; Slope Mean ± SE [14]: −0.01302 ± 0.001119; t1/2 mean ± SE [14, 16]: 53.2 ± 4.6 min

**Q.** With [2H]C([2H])([2H])Oc1cc(OC([2H])([2H])[2H])c2oc(COC(=O)Nc3ccn([C@@H]4O[C@H](CO)[C@@H](O)C4(F)F)c(=O)n3)cc2c1 [Int 3-3] as the compound, how does the AUC0-inf/AUC0-last [15] read?
**A.** The AUC0-inf/AUC0-last was 101%.

**Q.** What about the AUC(0-t) ([15]; mouse) of the same compound?
**A.** Its AUC(0-t) is 3480 ng·h/mL.

**Q.** And the C0 ([15]; mouse)?
**A.** Its C0 is 45900 ng/mL.

**Q.** And the clearance ([15]; mouse)?
**A.** Its clearance is 43.3 mL/min/kg.

**Q.** What about the half-life ([15]; mouse) of the same compound?
**A.** Its half-life is 74.4 min.

**Q.** What about the AUC(0-inf) ([15]; mouse, read-out: AUC0-inf) of the same compound?
**A.** The AUC(0-inf) was 3510 ng·h/mL.

**Q.** What about the MRT inf ([15]; mouse, read-out: MRT0-inf) of the same compound?
**A.** The MRT inf was 46 min.

**Q.** And the MRT last ([15]; mouse, read-out: MRT0-last)?
**A.** Its MRT last is 42.2 min.

**Q.** And the Vd ([15]; mouse, read-out: Vdss)?
**A.** The Vd was 1.83 L/kg.
